In paper PMC11084212, “Nontraditional Roles of Magnesium Ions in Modulating Sav2152: Insight from a Haloacid Dehalogenase-like Superfamily Phosphatase from Staphylococcus aureus” (International Journal of Molecular Sciences, 2024):

Target: T1, Sav2152 (Staphylococcus aureus, UniProt A0A0H3JWK0)
T1 construct: monomer; C-terminus (res. 234-285) disordered in crystal
Experiment: EnzChek phosphatase assay, DiFMU release
Format: biochemical
Conditions: 100 uM DiFMUP, 10 uM protein, 1 mM Mg2+, 100 mM NaCl, 25 mM Tris-HCl pH 7.0

T1 sequence (A0A0H3JWK0 entry or part of it): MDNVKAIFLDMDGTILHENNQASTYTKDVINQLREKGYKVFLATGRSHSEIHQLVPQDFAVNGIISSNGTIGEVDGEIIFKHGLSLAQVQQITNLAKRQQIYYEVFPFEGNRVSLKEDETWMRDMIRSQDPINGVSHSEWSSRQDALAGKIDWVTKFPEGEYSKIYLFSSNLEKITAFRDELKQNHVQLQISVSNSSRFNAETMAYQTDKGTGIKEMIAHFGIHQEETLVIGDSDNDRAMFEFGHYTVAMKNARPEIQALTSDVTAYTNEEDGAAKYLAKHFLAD

Cc1cc(=O)oc2c(F)c(OP(=O)(O)O)c(F)cc12 [DiFMUP]
EnzChek phosphatase assay, DiFMU release: enzymatic activity of this protein was investigated using a simple phosphatase assay kit with DiFMUP
